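Grown in 96-well plates, cells were treated for 48 hours with each compound at five concentrations. Insufficient inhibition: endpoint recorded as highest concentration tested. GI50: concentration for 50% inhibition of growth.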 Activity calls are given as the source filed them. Rule as the data show it: active = GI50 up to about 1.1 µM and inactive = higher.
Key:
Test in all cases: DTP human tumour cell line panel, 48 h
MOLT-4 = tested on: MOLT-4
SNB-75 = tested on: SNB-75
SK-MEL-2 = tested on: SK-MEL-2
UACC-257 = tested on: UACC-257
SR = tested on: SR
SNB-19 = tested on: SNB-19
HL-60 = tested on: HL-60
HOP-62 = tested on: HOP-62
SN12C = tested on: SN12C
CCRF-CEM = tested on: CCRF-CEM
HCC 2998 = tested on: HCC 2998
RXF 393 = tested on: RXF 393
HCT-116 = tested on: HCT-116
M14 = tested on: M14
Malme-3M = tested on: Malme-3M
SW-620 = tested on: SW-620
IGROV-1 = tested on: IGROV-1
SK-MEL-28 = tested on: SK-MEL-28
A498 = tested on: A498
NCI-H460 = tested on: NCI-H460

Compound	GI50 (MOLT-4)	GI50 (SNB-75)	GI50 (SK-MEL-2)	GI50 (UACC-257)	GI50 (SR)	GI50 (SNB-19)	GI50 (HL-60)	GI50 (HOP-62)	GI50 (SN12C)	GI50 (CCRF-CEM)	GI50 (HCC 2998)	GI50 (RXF 393)	GI50 (HCT-116)	GI50 (M14)	GI50 (Malme-3M)	GI50 (SW-620)	GI50 (IGROV-1)	GI50 (SK-MEL-28)	GI50 (A498)	GI50 (NCI-H460)
Nc1nnc2ccc(Cl)cc2[n+]1[O-]	35.1 µM (inactive)	> 100 µM (inactive)	49.3 µM (inactive)	94 µM (inactive)	46.3 µM (inactive)	> 100 µM (inactive)	29.3 µM (inactive)	> 100 µM (inactive)	> 100 µM (inactive)	29.6 µM (inactive)	40.8 µM (inactive)	29.8 µM (inactive)	39.7 µM (inactive)	39.1 µM (inactive)	54 µM (inactive)	36.5 µM (inactive)	31.8 µM (inactive)	62.5 µM (inactive)	68.5 µM (inactive)	–
O=c1c(-c2ccccc2)c(SCCN2CCCCCC2)n(-c2ccccc2)c(=S)n1-c1ccccc1	13.4 µM (inactive)	> 100 µM (inactive)	–	86.3 µM (inactive)	21.8 µM (inactive)	–	11 µM (inactive)	46.6 µM (inactive)	–	8.45 µM (inactive)	3.52 µM (inactive)	17.2 µM (inactive)	–	–	12.5 µM (inactive)	37.2 µM (inactive)	45.8 µM (inactive)	> 100 µM (inactive)	19.7 µM (inactive)	46.8 µM (inactive)
Cc1cccc(C(O)c2cccnc2)c1O (configuration not stated)	> 100 µM (inactive)	> 100 µM (inactive)	–	66.7 µM (inactive)	> 100 µM (inactive)	> 100 µM (inactive)	> 100 µM (inactive)	> 100 µM (inactive)	> 100 µM (inactive)	> 100 µM (inactive)	44.2 µM (inactive)	> 100 µM (inactive)	> 100 µM (inactive)	–	> 100 µM (inactive)	> 100 µM (inactive)	> 100 µM (inactive)	> 100 µM (inactive)	–	> 100 µM (inactive)
CC1=CC[C@H](C)C(C)(C)C1/C=C/C(C)=C/CC[C@@]1(CO)[C@H](CCCO)/C(=C(/C)C=O)CC[C@]1(C)O (some centres not stated)	1.57 µM (inactive)	–	15.8 µM (inactive)	15.2 µM (inactive)	0.493 µM (active)	8.51 µM (inactive)	0.897 µM (active)	–	5.68 µM (inactive)	4.21 µM (inactive)	2.31 µM (inactive)	14.6 µM (inactive)	–	2.07 µM (inactive)	3.27 µM (inactive)	2.01 µM (inactive)	11.7 µM (inactive)	11.4 µM (inactive)	–	1.11 µM (active)
CCOC(=O)C(OP(=O)(OCC)OCC)C(F)(F)F (configuration not stated)	> 100 µM (inactive)	> 100 µM (inactive)	> 100 µM (inactive)	> 100 µM (inactive)	> 100 µM (inactive)	> 100 µM (inactive)	> 100 µM (inactive)	> 100 µM (inactive)	> 100 µM (inactive)	> 100 µM (inactive)	> 100 µM (inactive)	> 100 µM (inactive)	> 100 µM (inactive)	> 100 µM (inactive)	> 100 µM (inactive)	–	–	> 100 µM (inactive)	> 100 µM (inactive)	> 100 µM (inactive)
N#Cc1ccccc1NC(=O)C(=O)C(C(=O)c1ccccc1F)C1OC(=O)c2ccccc21 (configuration not stated)	25 µM (inactive)	38.4 µM (inactive)	24.1 µM (inactive)	58.2 µM (inactive)	17.1 µM (inactive)	32.4 µM (inactive)	20.9 µM (inactive)	66.8 µM (inactive)	28.2 µM (inactive)	15.1 µM (inactive)	19.9 µM (inactive)	44.3 µM (inactive)	34.2 µM (inactive)	82 µM (inactive)	–	> 100 µM (inactive)	86.1 µM (inactive)	39.4 µM (inactive)	> 100 µM (inactive)	41.1 µM (inactive)
CCOC(=O)C(C(=O)OCC)c1cc(-c2cc3ccccc3o2)oc(=O)c1C#N	21.6 µM (inactive)	26.2 µM (inactive)	19.8 µM (inactive)	25.6 µM (inactive)	24.5 µM (inactive)	37.3 µM (inactive)	29.7 µM (inactive)	–	24.4 µM (inactive)	29.6 µM (inactive)	19.5 µM (inactive)	19.6 µM (inactive)	21.3 µM (inactive)	20.8 µM (inactive)	22.4 µM (inactive)	23.1 µM (inactive)	24.9 µM (inactive)	25.1 µM (inactive)	25.3 µM (inactive)	30.2 µM (inactive)
Brc1ccccc1-c1ncc(-c2ccccc2)o1	14.2 µM (inactive)	20.6 µM (inactive)	27.3 µM (inactive)	30.3 µM (inactive)	–	> 100 µM (inactive)	30.5 µM (inactive)	27.8 µM (inactive)	55.2 µM (inactive)	24.9 µM (inactive)	30 µM (inactive)	21.7 µM (inactive)	34.8 µM (inactive)	29.6 µM (inactive)	26.7 µM (inactive)	35.6 µM (inactive)	19.2 µM (inactive)	40.6 µM (inactive)	23 µM (inactive)	29.9 µM (inactive)

— ChEMBL document CHEMBL1201862, “PubChem BioAssay data set” (2004)
